For test [1], the system named is HL-60. Nature of the test: Cytotoxicity against human HL60 cells assessed as cell viability. Type of test: functional, cell-based.
The test system of test [2] is HL-60. Nature of the test: Induction of apoptosis in human HL60 cells assessed as cell death measured after 24 hrs following photo irradiation by trypan blue assay. Type of test: functional, cell-based.
The test system of test [3] is HL-60. Kind of test: Induction of apoptosis in human HL60 cells assessed as DNA fragmentation measured after 6 hrs following photo irradiation by trypan blue assay. Type of test: functional, cell-based.
For test [4], the system named is UB900518. Nature of the test: Antitumor activity against human UB900518 cells xenografted in mouse assessed as tumor regression at 5 mg/kg followed by photo irradiation measured after 72 hrs. It counts as functional, organism-based. Also on record: dose 5 mg/kg.

pIC50: −log10 of the molar value. Activity calls are given as the source filed them. No cut-off for these calls is given here.

As for `CN(C)/C=C/C(=C\C=[N+](C)C)c1c2nc(c(C(/C=C/N(C)C)=C/C=[N+](C)C)c3ccc([nH]3)c(C(/C=C/N(C)C)=C/C=[N+](C)C)c3nc(c(C(/C=C/N(C)C)=C/C=[N+](C)C)c4ccc1[nH]4)C=C3)C=C2`, the pIC50 in test [1] is 5.52. Further, the result in test [2], in test [3] and in test [4] was Active.
Consider `O=[N+]([O-])c1ccc(-[n+]2ccc(-c3c4nc(c(-c5cc[n+](-c6ccc([N+](=O)[O-])cc6[N+](=O)[O-])cc5)c5ccc([nH]5)c(-c5cc[n+](-c6ccc([N+](=O)[O-])cc6[N+](=O)[O-])cc5)c5nc(c(-c6cc[n+](-c7ccc([N+](=O)[O-])cc7[N+](=O)[O-])cc6)c6ccc3[nH]6)C=C5)C=C4)cc2)c([N+](=O)[O-])c1`, for which the negative logarithm of the IC50 (pIC50) in test [1] is 5.47. Further, the result in test [2] and in test [3] was Active.

The record behind these values is ChEMBL document CHEMBL1932956, “Combination of two chromophores: synthesis and PDT application of porphyrin-pentamethinium conjugate” (Bioorg Med Chem Lett, 2012).
